Article PMC10511244 (Nature, 2022)

System: AS4.3, AS8.2, AS8.4, and AU2.1 TCRs
Test: CD69 upregulation with peptide-pulsed K562 cells expressing HLA-B*27:05
Format: cell-based, human
Conditions: SKW-3 T cells expressing AS4.3, AS8.2, AS8.4, and AU2.1 TCRs; n = 3 biological replicates

Sequence: GQVMVVAPR [RNASEH2B^self]
- T cell response (CD69 upregulation) when peptide presented by HLA-B*27:05-expressing K562 cells: robust T cell responses

Sequence: LRQMLQAPH [MPP4^self]
- T cell response (CD69 upregulation) when peptide presented by HLA-B*27:05-expressing K562 cells: robust T cell responses
